Measurements reported in publication PMC3907678 (Tumour Biology, 2013).

Biological target: PDE1 (calmodulin-dependent 3,5-cyclic-nucleotide phosphodiesterase)
Assay: CaM-dependent PDE1 cAMP hydrolysis assay, Lineweaver-Burk and Dixon plots
Format: biochemical

Structure (SMILES): C[C@@H]1CC[C@H]2[C@@H](C)C(=O)O[C@@H]3O[C@@]4(C)CC[C@@H]1[C@]32OO4 [artemisinin]
- Ki: 10 µM
